Series [1] deals with bleeding time from hamster mesentery lesion. The experiment in a line: Hamster mesentery bleeding time during intravenous infusion. In kind it is in vivo, golden Syrian hamsters. On the procedure:
Female golden Syrian hamsters (90-150 g) were maintained on food and water ad libitum, but fasted overnight prior to their use in the present experiment. After the administration of anesthesia (65 mg/kg sodium pentobarbital, i.p.), the animals were shaved in preparation for surgery. The trachea was intubated with PE-100 polyethylene tubing to facilitate spontaneous breathing. Cannulation of the right femoral vein was performed to provide an intravenous route for supplemental anesthesia as well as for the administration of various control and experiment agents. A catheter was introduced into the right carotid artery for the continuous monitoring of arterial blood pressure, and a rectal temperature probe was inserted. The animal's body temperature was maintained at 37° C. with a heating pad and lamp.
The shaved abdomen was opened by a mid-line incision and a portion of the small intestine was exteriorized and draped over a lucite pedestal. Exposed tissue was kept warm and moist by continuous superfusion with warmed (37° C.) Mammalian Ringer's Solution. Experimental solutions were infused into the right femoral vein at a rate of 0.199 ml/min with a Harvard pump for a 10 minute period. An arterial vessel (external diameter, 100-200 micrometers) located at the junction of the small intestinal wall and the mesentery was severed 4 minutes after the start of the infusion. Blood was flushed away by the superfusion system and the waste was removed with a vacuum from a well surrounding the viewing pedestal. Bleeding was observed through Zeiss dissecting microscope (20×) and bleeding time was recorded from the time of the cut until the cessation of bleeding by the formation of a hemostatic plug. Each animal was used as its own control with bleeding time determined both during the infusion of saline and the selected experimental agent. […] Four additional animals were infused with trigramin while arterial blood pressure was continuously monitored to determine if it had any direct effect on systemic blood pressure. […]

Series [2] concerns the target T1, GPIb on ristocetin-stimulated platelets (Homo sapiens, UniProt P07359).
T1 construct: endogenous in cells; host or cells: platelets stimulated with ristocetin (0.75 mg/ml)
In words: 125I-von Willebrand Factor binding to ristocetin-stimulated platelets. The conditions noted are these: ristocetin 0.75 mg/ml. On the procedure:
(§1) The final concentration of von Willebrand Factor was 5 micrograms/ml. The total specific von Willebrand Factor binding was 380+/-55 ng/10^8 platelets in the control sample. […] It is well known that von Willebrand Factor binds to GPIIb-GPIIIa complex on thrombin-stimulated platelets, and to GPIb on ristocetin-stimulated platelets.

Another series is described as follows: Solubility in water. The series is classed as physicochemical.
The test system of a further series is platelets. In words: Platelet aggregation induced by prostaglandin endoperoxide analogue or thrombin. In kind it is cell-based, human. As to conditions: isolated platelet suspension.
Series [3] in a line: Elimination from the circulation. As to conditions: in vivo.
The target of series [4] is T2, fibrinogen receptors on platelets associated with the GPIIb-GPIIIa complex (Homo sapiens, UniProt P05106+P08514).
T2 construct: Human washed platelet suspension was prepared; endogenous in cells; host or cells: washed human platelets, stimulated with 10 micromolar ADP
In words: 125I-fibrinogen binding to ADP-stimulated human washed platelets. The conditions noted are these: ADP 10 micromolar-stimulated platelets; double-reciprocal plot FIG. 1; read-out: inhibition constant, Ki (competitive inhibition of fibrinogen binding). On the procedure:
(§2) The following experiment illustrates that trigramin can inhibit fibrinogen binding to platelets. Human washed platelet suspension was prepared according to the method of Mustard et al., Brit. J. Haemat. 22:193-204 (1972) and suspended in Tyrode's albumin solution (pH 7.35) containing 3.5 mg/ml bovine serum albumin (Sigma, Fraction V). To 420 microliters of this platelet suspension (about 5×10^8 platelets/ml) was added 10 microliters of ^125 I-fibrinogen. An amount of trigramin was added to the suspension, followed 3 minutes later by 10 microliters ADP (final concentration 10 micromolar). Following addition of ADP, the platelet suspension was gently shaken and incubated for about another 10 minutes. Then, 400 microliters of the platelet suspension were centrifuged through silicone oil at 15,000 g in an Eppendorf centrifuge. The amount of ^125 I-fibrinogen bound to the platelet pellet was measured. Nonspecific binding of fibrinogen was measured in the presence of 6 mM EDTA. The IC50 or 50% inhibition of fibrinogen binding was determined.

The nature of another series: Stability to proteolysis. In kind it is in vitro ADME.
Series [5] concerns melanoma cells that contain GPIIIa and vitronectin receptor. The experiment in a line: Melanoma cell adhesion to fibronectin-covered substrata and cell spreading. In kind it is cell-based. From the text: We have also observed an interaction between trigramin and melanoma cells that contain GPIIIa and vitronectin receptor. […] In the system tested, the biological activity of 0.2 nmoles of trigramin corresponded to 100 nmoles of the peptide glycine-arginine-glycine-aspartic acid-serine ("GRGDS"). This observation is interesting in view of the successful efforts of Humphries et al., Science 233: 467-470 to inhibit metastases of a melanoma cell line in mice by GRGDS.

Series [6] relates to chymotrypsin-treated platelets. The experiment in a line: Fibrinogen-induced aggregation of chymotrypsin-treated platelets (turbidimetric). The series is classed as cell-based, human. As to conditions: fibrinogen alone, without ADP, 37° C.; read-out: IC50 for inhibition of chymotrypsin-treated platelets (aggregation). The protocol: (§3) Platelet suspension was prepared as above. Platelets treated with alpha chymotrypsin (Sigma, grade IS) were prepared as described by Kornecki et al., J. Biol. Chem. 258:9349-9356 (1983), except that the incubation time of the platelets with chymotrypsin was reduced from 45 minutes to 20 minutes.
(§4) Various doses of trigramin (0.25-5.0 microgram/ml) were added to 420 microliters of platelet suspension (3×10^8 platelets per ml). One minute later, 10 microliters ADP (10 micromolar) and 10 microliters fibrinogen (200 micrograms) were added to initiate platelet aggregation. The same procedure using fibrinogen alone (without ADP) was carried out to induce aggregation of the chymotrypsin-treated platelets. The extent of platelet aggregation in each system was measured at 37° C. by the turbidimetric method of Born et al., J. Physiol. (Lond.) 168:178-195 (1963).

Series [7] deals with exposed fibrinogen receptors on alpha-chymotrypsin-treated platelets. In words: 125I-fibrinogen binding to alpha-chymotrypsin-treated platelets. The conditions noted are these: data not shown; read-out: IC50 of inhibition of 125I-fibrinogen binding to alpha-chymotrypsin-treated platelets. The arrangement: species or system human. On the procedure: as §2, §3
The test system of another series is ADP-stimulated platelets. In words: Fibrinogen-induced aggregation of ADP-stimulated platelets in suspension (turbidimetric). The series is classed as cell-based, human. As to conditions: ADP 10 micromolar, fibrinogen 200 micrograms/ml, 37° C.; read-out: IC50 for inhibition of aggregation of ADP-stimulated platelets. The protocol:
as §3, §4

A further series has as its target T3, GPIIb-GPIIIa complex (Homo sapiens, UniProt P05106+P08514).
T3 construct: endogenous in cells; host or cells: human platelets (resting, ADP-stimulated or chymotrypsin-treated)
The experiment in a line: 125I-trigramin binding to human platelets. From the text:
There are several similarities between the binding of ^125 I-trigramin and the binding of ^125 I-fibrinogen to human platelets. The binding of both ligands is inhibited by EDTA; by monoclonal antibodies interacting with the GP-IIb-GPIIIa complex (Coller, J. Clin. Invest. 76:101-108 (1985) and Bennett et al., Proc. Natl. Acad. Sci. U.S.A. 80:2417-2421 (1983)); by synthetic peptides representing putative platelet binding sites on the fibrinogen molecule Arg-Gly-Asp-Ser (Gartner et al., J. Biol. Chem. 260:11891-11894 (1985) and Plow et al., Proc. Natl. Acad. Sci. U.S.A. 82:8057-8061 (1985)); and by tyrosyl pentadecapeptide of the C-terminal portion of the gamma chain, […](Kloczewiak et al., Biochemistry 23:1767-1774 (1984). […] These individuals are deficient in the GPIIb-GPIIIa complex.
The binding affinity of trigramin to ADP-stimulated platelets resembles that of monoclonal antibodies.

A short description of series [8]: Phospholipase A activity of the HPLC-purified material. In kind it is biochemical. The protocol: A high performance liquid chromatography column (250×4.6 mm) containing a wide-pore C-18 silica matrix (e.g., VYDAC TPRP, The Separations Group, Hesperia, Calif.) is equilibrated at 20° C. in 0.1% trifluoroacetic acid. 150 micrograms of the above-prepared crude material in 200 microliters of 0.15M NaCl is injected into the column at a flow rate of 1.0 ml/min. The column is washed for 3 minutes. Fractions are eluted over 50 minutes with a gradient of 0-55% acetonitrile. […] The homogeneity of the purified material is confirmed by SDS-polyacrylamide gel electrophoresis with a silver stain (1 microgram). Trigramin appears as a single band with apparent molecular weight of about 9 kd on 20% gels.

For series [9], the target named is T4, GPIIb-GPIIIa complex on thrombin-stimulated platelets (Homo sapiens, UniProt P05106+P08514).
T4 construct: endogenous in cells; host or cells: human platelets stimulated with thrombin (0.5 u/ml)
The experiment in a line: 125I-von Willebrand Factor binding to thrombin-stimulated human platelets. As to conditions: trigramin 10^-8 M; thrombin 0.5 u/ml; von Willebrand Factor 5 micrograms/ml. On the procedure:
as §1

From patent US5066592A, “Trigramin - a platelet aggregation inhibiting polypeptide” (Temple University of the Commonwealth System of Higher …, priority 1990, dated 1991) come the findings set out here.

Turning to `CC#CCC(C)[C@H](O)/C=C/[C@@H]1[C@H]2C/C(=C/CCCC(=O)O)C[C@H]2C[C@H]1O` (stereo partly drawn) [Iloplrost, reference compound], the “time until bleeding ceased after the completion of the infusion” value in [1] (one hamster, positive control, 2 ng/kg/min) was “approximately 9 minutes”.

For the molecule trigramin, the “blocking of von Willebrand Factor binding to ristocetin-stimulated platelets” value in [2] was “does not block”. Further, in “Solubility in water”, the solubility in water entry is “soluble in water”. Also, in series [1] (hamster, infusion 80 micrograms/kg/min, FIG. 4), the “bleeding time after cessation of infusion” value is “rapid return of bleeding time to normal values”. The “bleeding time of the hamster mesentery during continuous infusion” value in series [1] (i.v. infusion, dose-dependent, control bleeding time 3.02 minutes+/-0.43, FIG. 3) is recorded as “markedly increased”. Moreover, the “inhibition of platelet aggregation induced by 9,11-dideoxy-9,11-methanoepoxy-PGF2-alpha” value in the series on platelets (agonist 2.5 micromolar) is listed as “inhibited platelet aggregation”. In addition, the “inhibition of platelet aggregation induced by thrombin” value in the series on platelets (thrombin 0.5 units/ml) is given as “inhibited platelet aggregation”. Moreover, the “elimination from the circulation” value in [3] is “eliminated from the circulation rapidly”. Also, in series [4], the Ki was found to be 20 nM. Besides, the stability to proteolysis result in the series “Stability to proteolysis” was “relatively stable to proteolysis”. Besides, in series [5], the “adhesion of melanoma cells to fibronectin-covered substrata” value was “blocks the adhesion”. Also, in [5], the melanoma cell spreading result is “inhibits cell spreading”. Besides, the “amount giving corresponding biological activity in the melanoma cell system” value in series [5] (0.2 nmoles of trigramin corresponded to 100 nmoles of GRGDS) came to 0.2 nmoles. The IC50 turned out to be 28 nM in series [6], 11 nM in series [7] and 130 nM in the series on ADP-stimulated platelets. For the same molecule, the “binding affinity of 125I-trigramin relative to 125I-fibrinogen, judged on dissociation constants” value in the series with GPIIb-GPIIIa complex (ADP-stimulated platelets) was “approximately 15 fold”. In the series with GPIIb-GPIIIa complex (platelets deficient in the GPIIb-GPIIIa complex), the “binding to platelets of patients with Glanzmann's thrombasthenia” value is recorded as “Neither trigramin nor fibrinogen was observed to bind sufficiently”. In addition, the “number of trigramin binding sites relative to total number of fibrinogen binding sites exposed by ADP” value with GPIIb-GPIIIa complex (similar on resting, ADP-stimulated and chymotrypsin-treated platelets) is listed as 50%. For the same molecule, the “phospholipase A activity” value in [8] was “devoid of phospholipase A activity”. For the same molecule, the “blocking of von Willebrand Factor binding to thrombin-stimulated human platelets” value in series [9] is reported as “specifically blocks”.

In general, Ki refers to the dissociation constant of the complex between target and ligand, obtained from inhibition or displacement. What is called IC50 is the concentration needed to halve the response being measured.
